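Five concentrations, 48 hours, 96-well plates. GI50 = concentration required for 50% inhibition of growth. TGI is the concentration that stops growth completely.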 A value given as a limit tells only on which side of the number the result lay.

Among the test systems are A549 NSCLC; EKVX NSCLC; M14 melanoma; NCI-H23 lung; NCI-H460 lung; NCI-H522 lung; RXF 393 renal; SW-620 colon; UACC-62 melanoma.
Holding throughout (assay): NCI-60 cell line screen, 48 h

As for `CN(C)/C=C/C(=O)c1cccc(C(=O)/C=C/N(C)C)n1`, the TGI in the experiment with A549 NSCLC, with EKVX NSCLC, in the experiment on M14 melanoma, in the experiment on NCI-H23 lung, with NCI-H460 lung and in the experiment on NCI-H522 lung was > 100 µM each time. For the same molecule, the TGI in the experiment on RXF 393 renal, in the experiment with SW-620 colon and in the experiment on UACC-62 melanoma was > 100 µM throughout.
As to `COc1cccc(C2N3CCCCC3[C@@H]3c4[nH]c5ccccc5c4CCN23)c1OC` (some centres undefined), the TGI in the experiment on A549 NSCLC came to 29.9 µM; with EKVX NSCLC, 32 µM; in the experiment on M14 melanoma, 29.6 µM; in the experiment with NCI-H23 lung, 30.6 µM; in the experiment on NCI-H460 lung, 36.3 µM; in the experiment on RXF 393 renal it was 27.9 µM. Besides, the TGI in the experiment with SW-620 colon was found to be 33.4 µM; in the experiment with UACC-62 melanoma it was 24 µM.
`CC1CC(=O)CC[C@@H]1OCc1ccccc1` (some centres undefined): the TGI with A549 NSCLC, with EKVX NSCLC, in the experiment with M14 melanoma, in the experiment with NCI-H23 lung, in the experiment on NCI-H460 lung and with RXF 393 renal was > 100 µM throughout. The TGI in the experiment on SW-620 colon and with UACC-62 melanoma was > 100 µM each time.
Take `CCC1C(=O)OCc2c1cc1n(c2=O)Cc2ccccc2-1` (centres undefined): the TGI in the experiment on A549 NSCLC, with EKVX NSCLC, with M14 melanoma, in the experiment with NCI-H23 lung, with NCI-H460 lung and with RXF 393 renal was > 100 µM each time. Further, the TGI with SW-620 colon and in the experiment on UACC-62 melanoma was > 100 µM throughout.
As to `COC(=O)C([O][Ge]([CH3])([CH3])[CH3])c1ccccc1` (centres undefined), the GI50 in the experiment on A549 NSCLC, in the experiment on EKVX NSCLC, in the experiment with M14 melanoma, with NCI-H23 lung, in the experiment on NCI-H460 lung and in the experiment on NCI-H522 lung was > 100 µM in each case. The GI50 in the experiment on SW-620 colon and in the experiment with UACC-62 melanoma was > 100 µM each time. Further, the TGI in the experiment with A549 NSCLC, with EKVX NSCLC, with M14 melanoma, with NCI-H23 lung, in the experiment with NCI-H460 lung and in the experiment with NCI-H522 lung was > 100 µM in each case. In addition, the TGI with SW-620 colon and with UACC-62 melanoma was > 100 µM in each case.
As for `COC(=O)C1=C(c2cc(OC)c(OC)c(OC)c2)OC(c2cc(OC)c(OC)c(OC)c2)C1` (centres undefined), the TGI in the experiment on A549 NSCLC is > 100 µM; with M14 melanoma, 50 µM; with NCI-H23 lung it was 48.9 µM; in the experiment on NCI-H460 lung it was > 100 µM; in the experiment on RXF 393 renal, 75.2 µM; in the experiment with SW-620 colon, > 100 µM. In addition, in the experiment on UACC-62 melanoma, the TGI came to 27.5 µM.
Take `CCCN(CCC)c1c([N+](=O)[O-])cc(C(N)=O)cc1[N+](=O)[O-]`: the TGI in the experiment with A549 NSCLC was > 100 µM; with EKVX NSCLC, > 100 µM; with M14 melanoma, > 100 µM; in the experiment with NCI-H23 lung, > 100 µM; with NCI-H460 lung, > 100 µM; in the experiment on NCI-H522 lung, 67.3 µM.
Regarding `c1cc[c]([Sn]([O]c2cccc3cccnc23)([c]2ccccc2)[c]2ccccc2)cc1`, the GI50 is 0.0184 µM in the experiment with A549 NSCLC; 0.0416 µM in the experiment with EKVX NSCLC; 0.0166 µM in the experiment with M14 melanoma; 0.0158 µM with NCI-H23 lung; 0.0154 µM in the experiment on NCI-H460 lung; < 0.01 µM with NCI-H522 lung. Besides, the GI50 with RXF 393 renal was 0.0154 µM; with SW-620 colon, 0.0101 µM; in the experiment with UACC-62 melanoma, < 0.01 µM. The TGI with A549 NSCLC amounted to 0.0427 µM; in the experiment on EKVX NSCLC, 0.17 µM; with M14 melanoma it was 0.0319 µM; with NCI-H23 lung it was 0.0397 µM; with NCI-H460 lung, 0.0321 µM; in the experiment with RXF 393 renal it was 0.0333 µM. Also, the values for the TGI in the experiment with SW-620 colon and in the experiment with UACC-62 melanoma were 0.0217 µM and 0.0188 µM, respectively.
For the molecule `COc1ccccc1NC(=O)NS(=O)(=O)c1ccccc1`, the TGI in the experiment on A549 NSCLC, with EKVX NSCLC, with M14 melanoma, in the experiment on NCI-H23 lung, with NCI-H460 lung and with NCI-H522 lung was > 100 µM in each case. Besides, the results for the TGI in the experiment on RXF 393 renal and with SW-620 colon were 98.2 µM and > 100 µM, respectively.
In the case of `Cc1cccc2c1C(=O)OC2(c1cccc2ccccc12)c1cccc2ccccc12`, the TGI in the experiment on A549 NSCLC, in the experiment with EKVX NSCLC, with M14 melanoma, in the experiment with NCI-H23 lung, in the experiment on NCI-H460 lung and in the experiment with NCI-H522 lung was > 100 µM in each case. The TGI in the experiment on RXF 393 renal is 94.3 µM; in the experiment with SW-620 colon, > 100 µM; in the experiment with UACC-62 melanoma it was > 100 µM.
As for `C/C(=N/OCCC(=O)O)C1CC1`, the TGI with A549 NSCLC, with EKVX NSCLC, in the experiment with M14 melanoma, in the experiment on NCI-H23 lung, in the experiment with NCI-H460 lung and with NCI-H522 lung was > 100 µM each time. Moreover, the TGI in the experiment with RXF 393 renal, with SW-620 colon and in the experiment on UACC-62 melanoma was > 100 µM in each case.
As for `N#CC(N)(C(=O)C(=O)NCCCNC(=O)C(=O)C(N)(C#N)c1ccc(Cl)cc1)c1ccc(Cl)cc1` (centres undefined), the TGI in the experiment on A549 NSCLC, with EKVX NSCLC, in the experiment with M14 melanoma, in the experiment with NCI-H23 lung, with NCI-H460 lung and with NCI-H522 lung was > 100 µM throughout. For the same molecule, the TGI in the experiment with RXF 393 renal, in the experiment with SW-620 colon and in the experiment with UACC-62 melanoma was > 100 µM throughout.
On to `CC(C(=O)C(C)O[Si](c1ccccc1)(c1ccccc1)C(C)(C)C)=P(c1ccccc1)(c1ccccc1)c1ccccc1` (centres undefined), for which the TGI in the experiment on A549 NSCLC amounted to 13.3 µM; in the experiment with EKVX NSCLC, 29.2 µM; with M14 melanoma, 14.7 µM; in the experiment with NCI-H23 lung it was 15.5 µM; in the experiment on NCI-H460 lung, 13.4 µM; in the experiment with SW-620 colon, 15.4 µM. Moreover, in the experiment with UACC-62 melanoma, the TGI came out at 14.4 µM.
As to `O=C1CCC(=O)C(C(=O)CCC(=O)Nc2ccc(Cl)cc2)C1` (centres undefined), the TGI in the experiment with A549 NSCLC, in the experiment with EKVX NSCLC, in the experiment with M14 melanoma, in the experiment with NCI-H23 lung, with NCI-H460 lung and with NCI-H522 lung was > 100 µM each time. Besides, the TGI in the experiment on SW-620 colon and with UACC-62 melanoma was > 100 µM throughout.
